{"source": "PubChem BioAssay (NCI)", "experiment_in_all_cases": "NCI anticancer screen, dose series, 48 h", "key": {"786-0 renal": {"test_system": "786-0 renal"}, "A498 renal": {"test_system": "A498 renal"}, "A549 NSCLC": {"test_system": "A549 NSCLC"}, "ACHN renal": {"test_system": "ACHN renal"}, "BT-549 breast": {"test_system": "BT-549 breast"}, "CAKI-1 renal": {"test_system": "CAKI-1 renal"}, "CCRF-CEM leukemia": {"test_system": "CCRF-CEM leukemia"}, "COLO 205 colon": {"test_system": "COLO 205 colon"}, "DU-145 prostate": {"test_system": "DU-145 prostate"}, "EKVX NSCLC": {"test_system": "EKVX NSCLC"}, "HCC-2998 colon": {"test_system": "HCC-2998 colon"}, "HCT-116 colon": {"test_system": "HCT-116 colon"}, "HCT-15 colon": {"test_system": "HCT-15 colon"}, "HL-60(TB) leukemia": {"test_system": "HL-60(TB) leukemia"}, "HOP-62 NSCLC": {"test_system": "HOP-62 NSCLC"}, "HOP-92 NSCLC": {"test_system": "HOP-92 NSCLC"}, "HS 578T breast": {"test_system": "HS 578T breast"}, "HT29 colon": {"test_system": "HT29 colon"}, "IGROV1 ovarian": {"test_system": "IGROV1 ovarian"}, "K-562 leukemia": {"test_system": "K-562 leukemia"}, "KM12 colon": {"test_system": "KM12 colon"}, "LOX IMVI melanoma": {"test_system": "LOX IMVI melanoma"}, "M14 melanoma": {"test_system": "M14 melanoma"}, "MALME-3M melanoma": {"test_system": "MALME-3M melanoma"}, "MCF7 breast": {"test_system": "MCF7 breast"}, "MDA-MB-231 breast": {"test_system": "MDA-MB-231 breast"}, "MDA-MB-435": {"test_system": "MDA-MB-435"}, "MOLT-4 leukemia": {"test_system": "MOLT-4 leukemia"}, "NCI-H226 lung": {"test_system": "NCI-H226 lung"}}, "note": "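1) Cells in 96-well plates. 2) Compound, 48 h, 5 concentrations. 3) Linear interpolation between surrounding doses. 4) Unreached endpoint = highest concentration. Abbreviation: GI50, concentration required for 50% inhibition of growth. The concentration for full growth arrest is given as TGI.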", "data": [{"molecule": "C/C(=N\\Nc1ccc(Cl)cn1)c1ccc2ccccc2n1", "values": [{"measurement": "GI50", "setting": "786-0 renal", "result": 2.44, "unit": "µM"}, {"measurement": "TGI", "setting": "786-0 renal", "result": 7.55, "unit": "µM"}, {"measurement": "GI50", "setting": "A498 renal", "result": 33.4, "unit": "µM"}, {"measurement": "TGI", "setting": "A498 renal", "result": "> 100", "unit": "µM"}, {"measurement": "GI50", "setting": "A549 NSCLC", "result": 4.22, "unit": "µM"}, {"measurement": "TGI", "setting": "A549 NSCLC", "result": "> 100", "unit": "µM"}, {"measurement": "GI50", "setting": "ACHN renal", "result": 2.49, "unit": "µM"}, {"measurement": "TGI", "setting": "ACHN renal", "result": "> 100", "unit": "µM"}, {"measurement": "GI50", "setting": "BT-549 breast", "result": 2.62, "unit": "µM"}, {"measurement": "TGI", "setting": "BT-549 breast", "result": "> 100", "unit": "µM"}, {"measurement": "GI50", "setting": "CAKI-1 renal", "result": 2.81, "unit": "µM"}, {"measurement": "TGI", "setting": "CAKI-1 renal", "result": 87.1, "unit": "µM"}, {"measurement": "GI50", "setting": "CCRF-CEM leukemia", "result": 0.513, "unit": "µM"}, {"measurement": "TGI", "setting": "CCRF-CEM leukemia", "result": "> 100", "unit": "µM"}, {"measurement": "GI50", "setting": "COLO 205 colon", "result": 2.98, "unit": "µM"}, {"measurement": "TGI", "setting": "COLO 205 colon", "result": "> 100", "unit": "µM"}, {"measurement": "GI50", "setting": "DU-145 prostate", "result": 4.03, "unit": "µM"}, {"measurement": "TGI", "setting": "DU-145 prostate", "result": "> 100", "unit": "µM"}, {"measurement": "GI50", "setting": "EKVX NSCLC", "result": 2.6, "unit": "µM"}, {"measurement": "TGI", "setting": "EKVX NSCLC", "result": "> 100", "unit": "µM"}, {"measurement": "GI50", "setting": "HCC-2998 colon", "result": 3.23, "unit": "µM"}, {"measurement": "TGI", "setting": "HCC-2998 colon", "result": "> 100", "unit": "µM"}, {"measurement": "GI50", "setting": "HCT-116 colon", "result": 1.59, "unit": "µM"}, {"measurement": "TGI", "setting": "HCT-116 colon", "result": "> 100", "unit": "µM"}, {"measurement": "GI50", "setting": "HCT-15 colon", "result": 0.64, "unit": "µM"}, {"measurement": "TGI", "setting": "HCT-15 colon", "result": "> 100", "unit": "µM"}, {"measurement": "GI50", "setting": "HL-60(TB) leukemia", "result": 2.18, "unit": "µM"}, {"measurement": "TGI", "setting": "HL-60(TB) leukemia", "result": 8.95, "unit": "µM"}, {"measurement": "GI50", "setting": "HOP-62 NSCLC", "result": 2.83, "unit": "µM"}, {"measurement": "TGI", "setting": "HOP-62 NSCLC", "result": "> 100", "unit": "µM"}, {"measurement": "GI50", "setting": "HOP-92 NSCLC", "result": 2.25, "unit": "µM"}, {"measurement": "TGI", "setting": "HOP-92 NSCLC", "result": "> 100", "unit": "µM"}, {"measurement": "GI50", "setting": "HS 578T breast", "result": 4.78, "unit": "µM"}, {"measurement": "TGI", "setting": "HS 578T breast", "result": "> 100", "unit": "µM"}, {"measurement": "GI50", "setting": "HT29 colon", "result": 5.05, "unit": "µM"}, {"measurement": "TGI", "setting": "HT29 colon", "result": "> 100", "unit": "µM"}, {"measurement": "GI50", "setting": "IGROV1 ovarian", "result": 2.88, "unit": "µM"}, {"measurement": "TGI", "setting": "IGROV1 ovarian", "result": "> 100", "unit": "µM"}, {"measurement": "GI50", "setting": "K-562 leukemia", "result": 3.13, "unit": "µM"}, {"measurement": "TGI", "setting": "K-562 leukemia", "result": "> 100", "unit": "µM"}, {"measurement": "GI50", "setting": "KM12 colon", "result": 3.15, "unit": "µM"}, {"measurement": "TGI", "setting": "KM12 colon", "result": "> 100", "unit": "µM"}, {"measurement": "GI50", "setting": "LOX IMVI melanoma", "result": 2.02, "unit": "µM"}, {"measurement": "TGI", "setting": "LOX IMVI melanoma", "result": "> 100", "unit": "µM"}, {"measurement": "GI50", "setting": "M14 melanoma", "result": 2.39, "unit": "µM"}, {"measurement": "TGI", "setting": "M14 melanoma", "result": 13.7, "unit": "µM"}, {"measurement": "GI50", "setting": "MALME-3M melanoma", "result": 2.21, "unit": "µM"}, {"measurement": "TGI", "setting": "MALME-3M melanoma", "result": "> 100", "unit": "µM"}, {"measurement": "GI50", "setting": "MCF7 breast", "result": 2.85, "unit": "µM"}, {"measurement": "TGI", "setting": "MCF7 breast", "result": "> 100", "unit": "µM"}, {"measurement": "GI50", "setting": "MDA-MB-231 breast", "result": 3.36, "unit": "µM"}, {"measurement": "TGI", "setting": "MDA-MB-231 breast", "result": "> 100", "unit": "µM"}, {"measurement": "GI50", "setting": "MDA-MB-435", "result": 4.45, "unit": "µM"}, {"measurement": "TGI", "setting": "MDA-MB-435", "result": "> 100", "unit": "µM"}, {"measurement": "GI50", "setting": "MOLT-4 leukemia", "result": 1.26, "unit": "µM"}, {"measurement": "TGI", "setting": "MOLT-4 leukemia", "result": "> 100", "unit": "µM"}, {"measurement": "GI50", "setting": "NCI-H226 lung", "result": 11.5, "unit": "µM"}]}]}
